Here are results for one compound from BindingDB's records for doi:10.1021/jm00061a004 (1993).

Data set [1] concerns the target CYP2D6 (Homo sapiens, UniProt P10635). Description: Apparent inhibitory constant (Ki) for Bufuralol 1'-hydroxylation by human liver microsomes. Particulars: probe bufuralol (1'-hydroxylation). (Liver microsomes are a subcellular fraction often used to study metabolism.)
The target of data set [2] is T1, Cytochrome P450 2D6 (Homo sapiens, UniProt P10635). Description: Inhibitory constant for cytochrome P450 2D6.
For data set [3], the target named is T1, Cytochrome P450 2D6. Description: Inhibition of partially purified cytochrome P450 2D6 1'-hydroxybufuralol formation.

T1 sequence (P10635 whole entry): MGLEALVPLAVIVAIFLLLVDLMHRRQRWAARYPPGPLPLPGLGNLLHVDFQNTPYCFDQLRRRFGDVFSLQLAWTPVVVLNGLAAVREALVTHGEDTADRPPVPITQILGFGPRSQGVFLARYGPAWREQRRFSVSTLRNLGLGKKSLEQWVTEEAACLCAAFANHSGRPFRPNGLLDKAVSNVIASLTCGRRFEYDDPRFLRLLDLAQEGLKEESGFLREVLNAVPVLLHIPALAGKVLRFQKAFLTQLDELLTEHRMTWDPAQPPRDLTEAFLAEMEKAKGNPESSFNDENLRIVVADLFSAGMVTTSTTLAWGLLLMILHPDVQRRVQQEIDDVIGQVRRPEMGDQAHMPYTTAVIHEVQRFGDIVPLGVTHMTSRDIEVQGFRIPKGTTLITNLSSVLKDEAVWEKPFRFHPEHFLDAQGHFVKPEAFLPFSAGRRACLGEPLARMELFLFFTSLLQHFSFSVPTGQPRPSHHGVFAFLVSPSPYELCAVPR
Chain of CYP2D6 (P10635 whole entry): as above

Regarding `COC(=O)C1=CO[C@@H](C)[C@H]2CN3CCc4c([nH]c5ccccc45)[C@@H]3C[C@H]12`, the figures for the Ki in data set [1], in data set [2] and in data set [3] were 4.6 nM, 3.3 nM and 5.7 nM, respectively.
